Measured values published in patent US7595398B2, “N-(5-membered aromatic ring)-amido anti-viral compounds” (SmithKline Beecham Corporation, priority 2005, dated 2009).

Tested on: HCV replicon I389luc-ubi-neo/NS3-3′/ET in ET (Huh-lucubineo-ET) cells; screening for HCV RNA dependent RNA polymerase
Assay: Replicon Assay (luciferase, ET cell line Huh-lucubineo-ET)
Format: cell-based
Settings: Hepatitis C virus; inhibition of replication relative to no compound control; test concentration of 10 μM according to the fitted equation; luciferase 48-72 hours
Outline: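 Huh-derived ET cells stably carrying an I389luc-ubi-neo/NS3-3′/ET HCV replicon with a luciferase-ubiquitin-neomycin phosphotransferase fusion and adaptive NS3-5B mutations were cultured in DMEM with 10% fetal calf serum and 250 μg/mL G418. Cells were seeded at 0.5-1.0×10^4 cells/well in 96 well plates and given compound after 24 hrs. Luciferase was read 48-72 hours later with Bright-Glo reagents, and replication inhibition was expressed relative to untreated controls.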

SMILES	inhibition at 10 µM [%]
O=C(Nc1nc2cc3ccccc3cc2s1)[C@@H]1CCCN1C(=O)OCc1ccccc1 [Compound 5035, 2-(Naphtho[2,3-d]thiazol-2-ylcarbamoyl)-pyrrolidine-1-carboxylic acid benzyl ester]	100
O=C(NC1CC1)c1ccc(-c2csc(NC(=O)[C@H]3CCCN3C(=O)OCc3ccccc3)n2)cc1 [Compound 5349, 2-[4-(4-Cyclopropylcarbamoyl-phenyl)-thiazol-2-ylcarbamoyl]-pyrrolidine-1-carboxylic acid benzyl ester]	28.6
COc1ccc(-c2csc(NC(=O)[C@@H]3CCCN3C(=O)OCc3ccccc3)n2)cc1OC [Compound 5054, 2-[4-(3,4-Dimethoxy-phenyl)-thiazol-2-ylcarbamoyl]-pyrrolidine-1-carboxylic acid benzyl ester]	99.3
O=C(Nc1nc(-c2ccc(-n3nncc3-c3ccccc3)cc2)cs1)[C@@H]1CCCN1C(=O)OCc1ccccc1 [Compound 5104, 2-{4-[4-(5-Phenyl-[1,2,3]triazol-1-yl)-phenyl]-thiazol-2-ylcarbamoyl}-pyrrolidine-1-carboxylic acid benzyl ester]	97.3
O=C(Nc1cccc(-c2csc(NC(=O)[C@@H]3CCCN3C(=O)OCc3ccccc3)n2)c1)c1ccc(Cl)cc1 [Compound 5038, 2-{4-[3-(4-Chloro-benzoylamino)-phenyl]-thiazol-2-ylcarbamoyl}-pyrrolidine-1-carboxylic acid benzyl ester]	100
O=C(NC1CC1)c1ccc(-c2csc(NC(=O)[C@@H]3CCCN3C(=O)C3(c4ccccc4)CC3)n2)cc1 [Compound 5371, 1-(1-Phenyl-cyclopropanecarbonyl)-pyrrolidine-2-carboxylic acid [4-(4-cyclopropylcarbamoyl-phenyl)-thiazol-2-yl]-amide]	100
Cc1cc(-c2csc(NC(=O)[C@@H]3CCCN3C(=O)OCc3ccccc3)n2)cc(C)c1C [Compound 5062, 2-[4-(3,4,5-Trimethyl-phenyl)-thiazol-2-ylcarbamoyl]-pyrrolidine-1-carboxylic acid benzyl ester]	94.7
CNc1ccc(-c2csc(NC(=O)C3CCCN3C(=O)OCc3ccccc3)n2)cc1 (stereo not shown) [Compound 5049, 2-[4-(4-Methylamino-phenyl)-thiazol-2-ylcarbamoyl]-pyrrolidine-1-carboxylic acid benzyl ester]	95.6
O=C(NC1CCCCC1)c1ccc(-c2csc(NC(=O)[C@@H]3CCCN3C(=O)OCc3ccccc3)n2)cc1 [Compound 5303, 2-[4-(4-Cyclohexylcarbamoyl-phenyl)-thiazol-2-ylcarbamoyl]-pyrrolidine-1-carboxylic acid benzyl ester]	100
O=C(NC1CC1)c1ccc(-c2csc(NC(=O)[C@@H]3COCN3C(=O)OCc3ccccc3)n2)cc1 [Compound 5313, 4-[4-(4-Cyclopropylcarbamoyl-phenyl)-thiazol-2-ylcarbamoyl]-oxazolidine-3-carboxylic acid benzyl ester]	100
O=C(NC1CC1)c1ccc(-c2csc(NC(=O)C3CCCN3C(=O)OCc3ccncc3)n2)cc1 (stereo not shown) [Compound 5384, 2-[4-(4-Cyclopropylcarbamoyl-phenyl)-thiazol-2-ylcarbamoyl]-pyrrolidine-1-carboxylic acid pyridin-4-ylmethyl ester]	99.7
CS(=O)(=O)Nc1ccc(-c2csc(NC(=O)C3CCCN3C(=O)OCc3ccccc3)n2)cc1 (stereo not shown) [Compound 5004, 2-[4-(4-Methanesulfonylamino-phenyl)-thiazol-2-ylcarbamoyl]-pyrrolidine-1-carboxylic acid benzyl ester]	99.9
O=C(Nc1cc(-c2ccccc2)nn1-c1ccccc1)[C@@H]1CCCN1C(=O)OCc1ccccc1 [Compound 5065, 2-(2,5-Diphenyl-2H-pyrazol-3-ylcarbamoyl)-pyrrolidine-1-carboxylic acid benzyl ester]	27.2
